Measured values published in article PMC9813109, “Phase I dose-escalation study of milademetan in patients with relapsed or refractory acute myeloid leukemia” (International Journal of Hematology, 2022).
Entries after “also recorded” stand apart in the source; their conditions may differ.

Legend:
patients with R/R AML = system: patients with R/R AML
Procedure: This phase I, open-label, and dose-escalation study conducted at eight centers in Japan recruited patients with R/R AML. Four fixed-dose milademetan schedules were planned (Supplementary Fig. 1A). Increases in the milademetan dose were guided by the modified continual reassessment method (mCRM), with a planned maximum dose of 160 mg/day (Supplementary Fig. 1B). Each cohort (90, 120, and 160 mg) consisted of three to six patients. The first cycle was defined as the dose-limiting toxicity (DLT) evaluation period where patients required hospitalization. The number of treatment cycles was not specified, and the study treatment for each patient was continued unless the discontinuation criteria were met.
In this study, we only assessed the patients with schedule A‒milademetan was administered once daily on days 1–14 followed by a 14-day rest in a 28-day cycle.
Relative dose intensity (in percentage) was calculated as a proportion of dose intensity/planned dose intensity (proportion of dose administered/total treatment duration). Safety assessments were completed by documenting the AEs, ECOG PS, laboratory data, body weight, vital signs, and the results of 12 lead ECGs. Serious adverse events (SAEs) were defined as any AEs that caused mortality, were life-threatening, required hospitalization or prolonged existing hospitalization, caused disability or incapacity, or represented other medical conditions. Patients were followed up until the AEs resolved.
Patients were evaluated for DLT during the first 28 days of cycle 1, defined as any nonhematological AEs of grade ≥ 3 unless attributed to the primary disease course, complications, or concomitant medications. Nonhematological toxicities classified as DLTs were grade 4 AST/ALT, grade 3 AST/ALT lasting ≥ 3 days, grade 3 AST/ALT with grade ≥ 2 total bilirubin, or an inability to complete at least 75% of the prescribed milademetan doses in cycle 1 (28 days) due to grade ≥ 2 events. Hematological toxicities classified as DLTs included failure to recover neutrophil and platelet counts to ≥ 500/mm^3 and ≥ 20,000/mm^3, respectively, that delayed the initiation of cycle 2 for > 2 weeks. DLT evaluation findings were used to determine the MTD. AEs that were not classified as DLTs included grade 3 fatigue of < 3 days; grade 3 nausea or vomiting that resolved to grade ≤ 2 within 2 days after antiemetic therapy; grade 3 diarrheas that resolved to grade ≤ 2 within 2 days after antidiarrheal therapy; and alopecia, febrile neutropenia, and transient laboratory abnormalities either without symptoms or requiring continuous treatment. Examples of non-DLT AEs were grade ≥ 3 alkaline phosphatases, uric acid, amylase, lipase, or hyponatremia that resolved within 72 h of onset. The Common Terminology Criteria for Adverse Events (version 5.0) were used for grading, and each AE was coded using the Medical Dictionary for Regulatory Activities (version 21.1). Criteria for drug dose reduction or interruption are described in Supplementary material.
All patients who received at least one milademetan dose were included in the safety analysis set. […] The efficacy analysis set included all patients who received at least one milademetan dose and underwent efficacy evaluation at least once after treatment initiation. […] The biomarker analysis set included all patients who received at least one milademetan dose, whose specimens were collected for biomarker studies, and who had available measurement data. Following the first cycle, doses for subsequent cohorts were guided by an mCRM based on a Bayesian logistic regression model incorporating the escalation with the overdose control principle, clinical evaluation of the toxicological profile, and pharmacokinetics and pharmacodynamics information.

tumor cells = system: tumor cells; parameters: method as in PMID 31310659, PMID 30724592; settings: in vitro studies; cited from earlier work
[1] = system: patients with solid tumors or lymphomas; settings: QD 21/28-day schedule, Japanese phase I; cited from earlier work

For `CC1(C)CCC2(CC1)N[C@@H](C(=O)N[C@@H]1CC[C@@H](C(N)=O)OC1)[C@H](c1ccnc(Cl)c1F)[C@]21C(=O)Nc2cc(Cl)ccc21` [milademetan], the “Deaths or AEs leading to treatment discontinuation” value (patients with R/R AML; 14 patients) was “No deaths or AEs leading to treatment discontinuation occurred; also recorded: No death or AEs that caused treatment discontinuation were noted”, the “Skin infection, All grades” value (patients with R/R AML; Total (n = 14)) was 1 (7.1) n (%) and the “Skin infection, Grade ≥ 3” value (patients with R/R AML; Total (n = 14)) was 1 (7.1) n (%). The “Anemia, All grades” value (patients with R/R AML; human, in vivo) was 5 (35.7) n (%), the “Anemia, Grade ≥ 3” value (patients with R/R AML; human, in vivo) was 5 (35.7) n (%) and the “Anemia, patients with TEAE regardless of causality” value (patients with R/R AML; human, in vivo) was 35.7%. The “Decreased appetite, All grades” value (patients with R/R AML; human, in vivo) was 9 (64.3) n (%), the “Decreased appetite, Grade ≥ 3” value (patients with R/R AML; human, in vivo) was 1 (7.1) n (%) and the “Decreased appetite, patients with TEAE regardless of causality” value (patients with R/R AML; human, in vivo) was 64.3%. For the same compound, the “Diarrhea, All grades” value (patients with R/R AML; human, in vivo) was 3 (21.4) n (%), the “Diarrhea, Grade ≥ 3” value (patients with R/R AML; human, in vivo) was 1 (7.1) n (%) and the “Dry mouth, All grades” value (patients with R/R AML; human, in vivo) was 3 (21.4) n (%). For the same compound, the “Dry mouth, Grade ≥ 3” value (patients with R/R AML; human, in vivo) was 0 (0.0) n (%), the “Febrile neutropenia, All grades” value (patients with R/R AML; human, in vivo) was 7 (50.0) n (%) and the “Febrile neutropenia, Grade ≥ 3” value (patients with R/R AML; human, in vivo) was 7 (50.0) n (%). For the same compound, the “Febrile neutropenia, patients with TEAE regardless of causality” value (patients with R/R AML; human, in vivo) was 50%, the “Hypokalemia, All grades” value (patients with R/R AML; human, in vivo) was 4 (28.6) n (%) and the “Hypokalemia, Grade ≥ 3” value (patients with R/R AML; human, in vivo) was 1 (7.1) n (%). For the same compound, the “Leukopenia, All grades” value (patients with R/R AML; human, in vivo) was 1 (7.1) n (%), the “Leukopenia, Grade ≥ 3” value (patients with R/R AML; human, in vivo) was 1 (7.1) n (%) and the “Malaise, All grades” value (patients with R/R AML; human, in vivo) was 3 (21.4) n (%). For the same compound, the “Malaise, Grade ≥ 3” value (patients with R/R AML; human, in vivo) was 0 (0.0) n (%), the “Nausea, All grades” value (patients with R/R AML; human, in vivo) was 6 (42.9) n (%) and the “Nausea, Grade ≥ 3” value (patients with R/R AML; human, in vivo) was 0 (0.0) n (%). The “Nausea, patients with TEAE regardless of causality” value (patients with R/R AML; human, in vivo) was 42.9%, the “Neutropenia, All grades” value (patients with R/R AML; human, in vivo) was 2 (14.3) n (%) and the “Neutropenia, Grade ≥ 3” value (patients with R/R AML; human, in vivo) was 2 (14.3) n (%). The “Neutrophil count decreased, All grades” value (patients with R/R AML; human, in vivo) was 1 (7.1) n (%), the “Neutrophil count decreased, Grade ≥ 3” value (patients with R/R AML; human, in vivo) was 1 (7.1) n (%) and the “Number of patients with SAEs” value (patients with R/R AML; human, in vivo) was 4 patients. For the same compound, the “Patients with TEAEs leading to study treatment interruption” value (patients with R/R AML; human, in vivo) was 21.4%, the “Patients with a TEAE that required dose reduction (acute kidney injury)” value (patients with R/R AML; human, in vivo) was 7.1% and the “Patients with grade ≥ 3 TEAEs” value (patients with R/R AML; human, in vivo) was 71.4%. The “Pharyngitis, All grades” value (patients with R/R AML; human, in vivo) was 1 (7.1) n (%), the “Pharyngitis, Grade ≥ 3” value (patients with R/R AML; human, in vivo) was 1 (7.1) n (%) and the “Platelet count decreased, All grades” value (patients with R/R AML; human, in vivo) was 3 (21.4) n (%). The “Platelet count decreased, Grade ≥ 3” value (patients with R/R AML; human, in vivo) was 3 (21.4) n (%), the “Pneumonia, All grades” value (patients with R/R AML; human, in vivo) was 4 (28.6) n (%) and the “Pneumonia, Grade ≥ 3” value (patients with R/R AML; human, in vivo) was 3 (21.4) n (%). For the same compound, the “Serious TEAE” value (patients with R/R AML; human, in vivo) was 4 (28.6) n (%), the “Stomatitis, All grades” value (patients with R/R AML; human, in vivo) was 3 (21.4) n (%) and the “Stomatitis, Grade ≥ 3” value (patients with R/R AML; human, in vivo) was 0 (0.0) n (%). For the same compound, the TEAE (patients with R/R AML; human, in vivo) was 13 (92.9) n (%), the “TEAE by CTCAE grade ≤ 2” value (patients with R/R AML; human, in vivo) was 3 (21.4) n (%) and the “TEAE by CTCAE grade ≥ 3” value (patients with R/R AML; human, in vivo) was 10 (71.4) n (%). The “TEAE leading to treatment interruption: decreased appetite” value (patients with R/R AML; human, in vivo) was 1 n, the “TEAE leading to treatment interruption: decreased neutrophil count” value (patients with R/R AML; human, in vivo) was 1 n and the “TEAE leading to treatment interruption: decreased platelet count” value (patients with R/R AML; human, in vivo) was 1 n. For the same compound, the “TEAE leading to treatment interruption: diarrhea” value (patients with R/R AML; human, in vivo) was 1 n, the “TEAE leading to treatment interruption: dysgeusia” value (patients with R/R AML; human, in vivo) was 1 n and the “TEAE leading to treatment interruption: febrile neutropenia” value (patients with R/R AML; human, in vivo) was 2 n. The “Thrombocytopenia, All grades” value (patients with R/R AML; human, in vivo) was 4 (28.6) n (%), the “Thrombocytopenia, Grade ≥ 3” value (patients with R/R AML; human, in vivo) was 4 (28.6) n (%) and the Tolerability (patients with R/R AML; human, in vivo) was “well tolerated up to 160 mg”. For the same compound, the “Vomiting, All grades” value (patients with R/R AML; human, in vivo) was 4 (28.6) n (%), the “Vomiting, Grade ≥ 3” value (patients with R/R AML; human, in vivo) was 0 (0.0) n (%) and the “White blood cell count decreased, All grades” value (patients with R/R AML; human, in vivo) was 1 (7.1) n (%). For the same compound, the “White blood cell count decreased, Grade ≥ 3” value (patients with R/R AML; human, in vivo) was 1 (7.1) n (%), the Recommended dose (patients with R/R AML; human, in vivo, 28 days) was 160 mg and the “Dose dependence of frequency of TEAEs that were grade ≥ 3, serious, or led to dose reduction/treatment interruption” value (patients with R/R AML; in vivo) was “No dose-dependent increase was observed”. The “Grade 4 TEAE: decreased neutrophil count” value (patients with R/R AML; in vivo) was “one”, the “Grade 4 TEAE: decreased platelet count” value (patients with R/R AML; in vivo) was “three” and the “Grade 4 TEAE: neutropenia” value (patients with R/R AML; in vivo) was “two”. For the same compound, the “Grade 4 TEAE: thrombocytopenia” value (patients with R/R AML; in vivo) was “two”, the “Number of reported SAEs (serious TEAEs)” value (patients with R/R AML; in vivo) was “Five” and the “Other laboratory parameters (hematology, blood chemistry, urinalysis), vital signs, ECG parameters” value (patients with R/R AML; in vivo) was “No clinically relevant changes from baseline or consistent trends were observed”. The “SAE: febrile neutropenia” value (patients with R/R AML; in vivo) was “two”, the “SAE: pneumonia” value (patients with R/R AML; in vivo) was “three” and the “Maximum tolerated dose (MTD)” value (patients with R/R AML; up to 160 mg, QD 14/28 schedule) was “not reached”. The “Antitumor effect in vitro” value (tumor cells) was “p53 status-dependent antitumor effect” and the “Maximum tolerated dose (MTD)” value [1] was 90 mg.
